Laboratory results taken from patent publication US7799824B2, “Quaternary salt CCR2 antagonists” (OraPharma, Inc., priority 2004, dated 2010).

target: T1, CCR2 (Homo sapiens, UniProt P41597); assay: MCP-1 Receptor Binding Assay in THP-1 Cells; conditions: MCP-1 binding to CCR2; test concentration of 25 μM, unless indicated otherwise; read-out: % Inhibition Ligand Binding
T1 sequence (P41597 1-360 isoform P41597-2): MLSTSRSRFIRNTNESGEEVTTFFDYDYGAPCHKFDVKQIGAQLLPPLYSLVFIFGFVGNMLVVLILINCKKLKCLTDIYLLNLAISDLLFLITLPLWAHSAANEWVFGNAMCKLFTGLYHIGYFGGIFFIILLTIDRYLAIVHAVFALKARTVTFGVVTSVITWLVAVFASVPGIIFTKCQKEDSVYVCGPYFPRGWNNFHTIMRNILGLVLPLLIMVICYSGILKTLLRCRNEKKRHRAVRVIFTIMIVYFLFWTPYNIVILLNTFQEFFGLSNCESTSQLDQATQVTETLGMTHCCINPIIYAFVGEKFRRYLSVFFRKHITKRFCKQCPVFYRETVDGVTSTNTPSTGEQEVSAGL
How it was run: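 THP-1 cells; bound radioactivity collected on filter plates and counted by scintillation. Buffer-only blanks subtracted, drug-treated values compared with vehicle; nonspecific binding defined with 1 μM unlabeled MCP-1.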

Compound	inhibition at 25 µM [%]
C[N+](C)(Cc1ccc(CNC(=O)C2=Cc3c(ccc4ccccc34)OC2)cc1)C1CCOCC1 [Cpd 141, (4-{[(3H-benzo[f]chromene-2-carbonyl)-amino]-methyl}-benzyl)-dimethyl-(tetrahydro-pyran-4-yl)-ammonium iodide]	-21
C[N+](C)(Cc1ccc(CNC(=O)C2=Cc3cc(Br)ccc3CCC2)cc1)C1CCOCC1 [Cpd 142, (4-{[(3-bromo-8,9-dihydro-7H-benzocycloheptene-6-carbonyl)-amino]-methyl}-benzyl)-dimethyl-(tetrahydro-pyran-4-yl)-ammonium iodide]	-18
C[N+]1(Cc2ccc(NC(=O)C3=Cc4ccccc4CCC3)cc2)CCCC1 [Cpd 145, 1-{4-[(8,9-dihydro-7H-benzocycloheptene-6-carbonyl)-amino]-benzyl}-1-methyl-pyrrolidinium iodide]	36
C[N+](C)(Cc1ccc(CNC(=O)C2=Cc3ccccc3CCC2)cc1)C1CCOCC1 [Cpd 148, (4-{[(8,9-dihydro-7H-benzocycloheptene-6-carbonyl)-amino]-methyl}-benzyl)-dimethyl-(tetrahydro-pyran-4-yl)-ammonium iodide]	7
Cc1oc(-c2ccccc2)cc1C(=O)NCc1ccc(C[N+](C)(C)C2CCOCC2)cc1 [Cpd 149, dimethyl-(4-{[(2-methyl-5-phenyl-furan-3-carbonyl)-amino]-methyl}-benzyl)-(tetrahydro-pyran-4-yl)-ammonium iodide]	58
Cc1oc(-c2ccc(Cl)cc2)cc1C(=O)NCc1ccc(C[N+](C)(C)C2CCOCC2)cc1 [Cpd 150, [4-({[5-(4-chloro-phenyl)-2-methyl-furan-3-carbonyl]-amino}-methyl)-benzyl]-dimethyl-(tetrahydro-pyran-4-yl)-ammonium iodide]	27
Cn1cc(C(=O)Nc2ccc(C[N+](C)(C)C3CCOCC3)cc2)c2ccccc21 [Cpd 161, dimethyl-{4-[(1-methyl-1H-indole-3-carbonyl)-amino]-benzyl}-(tetrahydro-pyran-4-yl)-ammonium iodide]	33

same assay, conditions: THP-1 cells, 0.5 nM 125I labeled MCP-1, 2 hours at 30° C.; read-out: Mean Ligand Binding IC50 (inhibition of MCP-1 binding to CCR2)

Compound	IC50 [nM]
C[N+](C)(Cc1ccc(NC(=O)C2=Cc3cccc(F)c3OC2)cc1)C1CCCCC1 [Cpd 126, cyclohexyl-{4-[(8-fluoro-2H-chromene-3-carbonyl)-amino]-benzyl}-dimethyl-ammonium iodide]	910
Cc1ccc2c(c1)OCC(C(=O)Nc1ccc(C[N+](C)(C)C3CCCCC3)cc1)=C2 [Cpd 127, cyclohexyl-dimethyl-{4-[(7-methyl-2H-chromene-3-carbonyl)-amino]-benzyl}-ammonium iodide]	80
COc1ccc2c(c1)OCC(C(=O)Nc1ccc(C[N+](C)(C)C3CCCCC3)cc1)=C2 [Cpd 128, cyclohexyl-{4-[(7-methoxy-2H-chromene-3-carbonyl)-amino]-benzyl}-dimethyl-ammonium iodide]	600
CC(C)(C)c1ccc2c(c1)C=C(C(=O)Nc1ccc(C[N+](C)(C)C3CCCCC3)cc1)CO2 [Cpd 129, {4-[(6-tert-butyl-2H-chromene-3-carbonyl)-amino]-benzyl}-cyclohexyl-dimethyl-ammonium iodide]	150
C[N+](C)(Cc1ccc(NC(=O)C2=Cc3cc(C(F)(F)F)ccc3OC2)cc1)C1CCSC1 (stereo not shown) [Cpd 130, dimethyl-(tetrahydro-thiophen-3-yl)-{4-[(6-trifluoromethyl-2H-chromene-3-carbonyl)-amino]-benzyl}-ammonium iodide]	300
C[N+](C)(Cc1ccc(NC(=O)C2=Cc3cccc(C(F)(F)F)c3OC2)cc1)C1CCCCC1 [Cpd 134, cyclohexyl-dimethyl-{4-[(8-trifluoromethyl-2H-chromene-3-carbonyl)-amino]-benzyl}-ammonium iodide]	470
C[N+](C)(Cc1ccc(NC(=O)C2=Cc3c(ccc4ccccc34)OC2)cc1)C1CCOCC1 [Cpd 135, {4-[(3H-benzo[f]chromene-2-carbonyl)-amino]-benzyl}-dimethyl-(tetrahydro-pyran-4-yl)-ammonium iodide]	910
C[N+]1(Cc2ccc(NC(=O)C3=Cc4c(ccc5ccccc45)OC3)cc2)CCCC1 [Cpd 136, 1-{4-[(3H-benzo[f]chromene-2-carbonyl)-amino]-benzyl}-1-methyl-pyrrolidinium iodide]	4600
C[N+](C)(Cc1ccc(NC(=O)C2=Cc3c(ccc4ccccc34)OC2)cc1)C1CCCCC1 [Cpd 137, {4-[(3H-benzo[f]chromene-2-carbonyl)-amino]-benzyl}-cyclohexyl-dimethyl-ammonium iodide]	80
C[N+](C)(Cc1ccc(NC(=O)C2=Cc3c(ccc4ccccc34)OC2)cc1)C1CCSCC1 [Cpd 138, {4-[(3H-benzo[f]chromene-2-carbonyl)-amino]-benzyl}-dimethyl-(tetrahydro-thiopyran-4-yl)-ammonium iodide]	2400
C[N+]1(Cc2ccc(NC(=O)C3=Cc4c(ccc5ccccc45)OC3)cc2)CCOCC1 [Cpd 139, 4-{4-[(3H-benzo[f]chromene-2-carbonyl)-amino]-benzyl}-4-methyl-morpholin-4-ium iodide]	9800
C[N+](C)(Cc1ccc(NC(=O)C2=Cc3c(ccc4ccccc34)OC2)cc1)CC1CCOCC1 [Cpd 140, {4-[(3H-benzo[f]chromene-2-carbonyl)-amino]-benzyl}-dimethyl-(tetrahydro-pyran-4-ylmethyl)-ammonium iodide]	1000
C[N+](C)(Cc1ccc(NC(=O)C2=Cc3cc(Br)ccc3CCC2)cc1)C1CCOCC1 [Cpd 143, {4-[(3-bromo-8,9-dihydro-7H-benzocycloheptene-6-carbonyl)-amino]-benzyl}-dimethyl-(tetrahydro-pyran-4-yl)-ammonium iodide]	7
C[N+](C)(Cc1ccc(NC(=O)C2=Cc3cc(Br)ccc3CCC2)cc1)C1CCCCC1 [Cpd 144, {4-[(3-bromo-8,9-dihydro-7H-benzocycloheptene-6-carbonyl)-amino]-benzyl}-cyclohexyl-dimethyl-ammonium iodide]	330
C[N+](C)(Cc1ccc(NC(=O)C2=Cc3ccccc3CCC2)cc1)C1CCCCC1 [Cpd 146, cyclohexyl-{4-[(8,9-dihydro-7H-benzocycloheptene-6-carbonyl)-amino]-benzyl}-dimethyl-ammonium iodide]	710
C[N+](C)(Cc1ccc(NC(=O)C2=Cc3ccccc3CCC2)cc1)C1CCOCC1 [Cpd 147, {4-[(8,9-dihydro-7H-benzocycloheptene-6-carbonyl)-amino]-benzyl}-dimethyl-(tetrahydro-pyran-4-yl)-ammonium iodide]	1200
C[N+](C)(Cc1ccc(NC(=O)c2cc3ccccc3o2)cc1)C1CCOCC1 [Cpd 152, {4-[(benzofuran-2-carbonyl)-amino]-benzyl}-dimethyl-(tetrahydro-pyran-4-yl)-ammonium iodide]	1600
C[N+](C)(Cc1ccc(NC(=O)c2cc(-c3ccc(Cl)cc3)oc2C(F)(F)F)cc1)C1CCCCC1 [Cpd 154, (4-{[5-(4-chloro-phenyl)-2-trifluoromethyl-furan-3-carbonyl]-amino}-benzyl)-cyclohexyl-dimethyl-ammonium iodide]	4600
C[N+](C)(Cc1ccc(NC(=O)c2cc3cc(Cl)ccc3o2)cc1)C1CCOCC1 [Cpd 155, {4-[(5-chloro-benzofuran-2-carbonyl)-amino]-benzyl}-dimethyl-(tetrahydro-pyran-4-yl)-ammonium iodide]	490
C[N+](C)(Cc1ccc(NC(=O)c2cc3cc(Cl)ccc3o2)cc1)C1CCCCC1 [Cpd 156, {4-[(5-chloro-benzofuran-2-carbonyl)-amino]-benzyl}-cyclohexyl-dimethyl-ammonium iodide]	180
C[N+](C)(Cc1ccc(NC(=O)c2cc3ccccc3o2)cc1)C1CCCCC1 [Cpd 157, {4-[(benzofuran-2-carbonyl)-amino]-benzyl}-cyclohexyl-dimethyl-ammonium iodide]	690
Cn1c(C(=O)Nc2ccc(C[N+](C)(C)C3CCOCC3)cc2)cc2ccccc21 [Cpd 158, dimethyl-{4-[(1-methyl-1H-indole-2-carbonyl)-amino]-benzyl}-(tetrahydro-pyran-4-yl)-ammonium iodide]	400
C[N+](C)(Cc1ccc(NC(=O)c2cc3cc(Cl)ccc3[nH]2)cc1)C1CCOCC1 [Cpd 159, {4-[(5-chloro-1H-indole-2-carbonyl)-amino]-benzyl}-dimethyl-(tetrahydro-pyran-4-yl)-ammonium iodide]	190
C[N+](C)(Cc1ccc(NC(=O)c2cc3cc(Br)ccc3[nH]2)cc1)C1CCOCC1 [Cpd 160, {4-[(5-bromo-1H-indole-2-carbonyl)-amino]-benzyl}-dimethyl-(tetrahydro-pyran-4-yl)-ammonium iodide]	290
C[N+](C)(Cc1ccc(NC(=O)c2cn(Cc3ccccc3)c3ccccc23)cc1)C1CCOCC1 [Cpd 162, {4-[(1-benzyl-1H-indole-3-carbonyl)-amino]-benzyl}-dimethyl-(tetrahydro-pyran-4-yl)-ammonium iodide]	1600
Cn1c(C(=O)Nc2ccc(C[N+](C)(C)C3CCCCC3)cc2)cc2ccccc21 [Cpd 163, cyclohexyl-dimethyl-{4-[(1-methyl-1H-indole-2-carbonyl)-amino]-benzyl}-ammonium iodide]	620
C[N+](C)(Cc1ccc(NC(=O)c2cc3cc(Cl)ccc3[nH]2)cc1)C1CCCCC1 [Cpd 164, {4-[(5-chloro-1H-indole-2-carbonyl)-amino]-benzyl}-cyclohexyl-dimethyl-ammonium iodide]	200
